The target of the assay is T1, Enoyl-[acyl-carrier-protein] reductase [NADPH] FabI (Staphylococcus aureus (strain MRSA252), UniProt Q6GI75).
T1 sequence (Q6GI75 whole entry): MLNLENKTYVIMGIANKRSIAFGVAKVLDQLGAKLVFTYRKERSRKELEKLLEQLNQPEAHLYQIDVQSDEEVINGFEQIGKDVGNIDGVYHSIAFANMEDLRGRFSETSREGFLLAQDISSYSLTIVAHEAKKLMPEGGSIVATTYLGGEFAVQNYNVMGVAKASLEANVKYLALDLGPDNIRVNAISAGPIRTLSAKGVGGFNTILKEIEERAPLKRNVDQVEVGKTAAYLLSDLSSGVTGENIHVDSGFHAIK
Put plainly: Thermal Shift Assay. The settings on record: pH 7.5. The procedure: ThermoFluor experiments were carried out in 96-well plates (Concord) using the CFX96 RealTime PCR Detection system and C1000 Thermal Cycler (BioRad).
The term Ki denotes a measure of affinity in units of concentration, obtained from inhibition or displacement. Take `CCCCCCc1ccc(Oc2ccccc2N)c(O)c1`: the Ki was determined as 0.12 nM.
On to `Oc1ccccc1Oc1ccccc1` [2-phenoxylphenol], for which the Ki was found to be 18.9 nM.
Turning to `CCCCCCCCc1ccc(Oc2ccccc2)c(O)c1` [5-Octyl-2-phenoxy-phenol], the Ki was 0.82 nM.
The result for `Oc1cc(Br)ccc1Oc1ccccc1` [5-bromo-2-phenoxylphenol] reads 0.06 nM; that for `CCCCCCc1ccc(Oc2ccccc2)c(O)c1` [5-hexyl-2-phenoxyphenol], 0.01 nM; that for `CCCCCc1ccc(Oc2ccccc2)c(O)c1` [5-pentyl-2-phenoxylphenol], 0.04 nM.
On to `CCCc1ccc(Oc2ccccc2)c(O)c1` [PT02], for which the Ki worked out at 0.07 nM.
With `Cc1ccc(Oc2ccccc2)c(O)c1` [PT53], the Ki was found to be 0.38 nM.
`Oc1cc(F)ccc1Oc1ccccc1` [PT55]: the Ki is 1.42 nM.
For the molecule `C=CCc1ccc(Oc2ccccc2)c(O)c1` [PT68], the Ki is 0.11 nM.
With `Oc1cc(Cc2ccccc2)ccc1Oc1ccccc1` [PT89], the Ki is 0.1 nM.
With `Cc1ccccc1Oc1ccc(CCc2ccccc2)cc1O` [PT162], the inhibitory constant (Ki) was determined as 0.5 nM.
Turning to `N#Cc1ccccc1Oc1ccc(Br)cc1O` [PT443], the Ki came out at 0.05 nM.
Under `N#Cc1ccccc1Oc1ccc(F)cc1O` [PT446] stands 1.01 nM.

The values are drawn from BindingDB's records for doi:10.1021/bi400413c (Stony Brook University, 2013).
